Measured values reported in patent US10011863B2, “Methods for detecting enhanced NMDA receptor function and uses thereof” (INOVA HEALTH SYSTEM, priority 2016, dated 2018).

Columns and labels:
[1] = test system: human GRIN2B promoter (G allele of SNP rs3764030) in N2a cells; assay: dual-luciferase reporter gene assay, GRIN2B promoter G allele plasmid; assay type: cell-based, murine; details: N2A cells transfected with G allele luciferase reporter plasmid; increasing concentrations of NMDA
Description: (§1) FIG. 3 depicts a concentration dependent response of human GRIN2B promoter in N2a cells carrying either the A or G alleles of SNP rs3764030 to NMDA. Luciferase reporter gene plasmids were constructed in pGL 4.10 (to produce Firefly luciferase, Promega, US). Luciferase reporter plasmids and the pGL4.75 plasmid (to produce Renilla luciferase as a reference) were co-transfected into retinoic acid differentiated N2a cells and assayed for (Methods). After 24 hours of transfection, the cells were incubated for six hours with 0, 30, 50, 70 or 90 μM NMDA for transcription factors binding and then replaced with complete media (with 10% FBS) and cultured for an additional 40-44 hrs. Data are presented as means±SE.
(§2) Molecular and cellular characterization of a functional GRIN2B SNP: Luciferase vector construction. […]
(§3) Cell Culture, Transfection, and Luciferase assay. […] The luciferase activities were then measured in Synergy 4 plate reader (Biotek, US).
(§4) Murine Neuro-2a neuroblastoma cells were maintained in RPMI medium 1640 with 10% Fetal Bovine Serum (complete medium) at 37° C. in 5% CO2. […] The luciferase activities were then measured in Synergy 4 plate reader (Biotek US).

[2] = test system: human GRIN2B promoter (A allele of SNP rs3764030) in N2a cells; assay: dual-luciferase reporter gene assay, GRIN2B promoter A allele plasmid; assay type: cell-based, murine
Description: as §1, §2, §3, §4

[3] = molecular target: T1, recombinant human Elk-1 protein (Homo sapiens, UniProt P19419); assay: Electrophoretic Mobility Shift Assay (EMSA); assay type: binding; details: 1 μg recombinant human Elk-1; gel stained for DNA (SYBR Green) and protein (SYPRO Ruby)
T1 construct: purchased Sigma Aldrich
T1 sequence (P19419 1-428): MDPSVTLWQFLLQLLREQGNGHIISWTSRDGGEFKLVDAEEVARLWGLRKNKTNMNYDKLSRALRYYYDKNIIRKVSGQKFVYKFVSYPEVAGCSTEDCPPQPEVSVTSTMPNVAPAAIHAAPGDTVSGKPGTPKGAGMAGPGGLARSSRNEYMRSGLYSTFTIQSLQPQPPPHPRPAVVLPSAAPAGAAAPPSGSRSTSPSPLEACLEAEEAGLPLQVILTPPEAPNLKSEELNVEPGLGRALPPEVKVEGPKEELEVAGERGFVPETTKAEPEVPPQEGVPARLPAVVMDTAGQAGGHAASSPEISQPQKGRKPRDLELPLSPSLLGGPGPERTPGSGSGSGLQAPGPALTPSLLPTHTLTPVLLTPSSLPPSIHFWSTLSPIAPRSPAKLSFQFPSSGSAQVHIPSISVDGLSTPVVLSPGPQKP
Description: FIG. 2 depicts binding of recombinant Elk-1 protein (an ETS transcription factor) to double stranded DNAs containing the single nucleotide polymorphism (SNP) rs3764030 variant A allele from the human GRIN2B gene promoter. Double-stranded DNA targets (Methods) were sequentially incubated with 1 μg recombinant human Elk-1 protein in EMSA buffer, then incubated with the Elk-1 antibody 20 minutes. […] Samples were electrophoresed through 6% polyacrylamide gels in HEPES buffer pH 6.3, without polydldC. The gel was then stained with the SYBR Green to visualize DNA and SYPRO Ruby for protein bound to DNA. The stained gel was scanned using G:BOX (Syngene, US) for imaging. Elk-1 bound to DNA is indicated by the arrow.
Electrophoretic Mobility Shift Assay (EMSA). To monitor the interaction between the ETS domain transcription factor, Elk-1, and its DNA recognition sequence in vitro, we used EMSA. The DNA sequences for positive control containing a GGAT consensus core binding sequence were: Forward: 5′ […] 3′ (SEQ ID NO:2) and Reverse: 5′ […] 3′ (SEQ ID NO:3). The negative control region was: Forward: 5′ […] 3′ (SEQ ID NO:4) and Reverse: 5′ […] 3′ (SEQ ID NO:5), as described in Wei et al (2010). The forward and reverse sequence for GRIN2B A allele which created the ETS binding site were: 5′ […] 3′ (SEQ ID NO:6)and 5′ […] 3′ (SEQ ID NO:7), repectively. […]

CN[C@H](CC(=O)O)C(=O)O [NMDA, N-methyl-D-aspartate]
luciferase reporter response to NMDA treatment [1]: did not respond | dose-dependent increase in luciferase activity ([2]; N2A cells transfected with A allele reporter, increasing concentrations of NMDA (0, 30, 50, 70, 90 μM)): 2.4-11.5 fold | reporter gene activity of A allele relative to cells carrying the G allele reporter ([2]; NMDA receptor activation, dose-dependent, A allele vs G allele): 2 fold

A allele DNA probe: annealed dsDNA of GRIN2B A allele, 5′ CATCTCCGGGGAACACGCGAA 3′ (SEQ ID NO:6) and SEQ ID NO:7, creating ETS binding site (chain 2 TTCGCGTGTTCCCCGGAGATG; listed as DNA, chemistry not given here)
binding of recombinant Elk-1 to DNA probe [3]: bound recombinant Elk-1 to a greater extent than the G allele DNA probe
